Test systems include OVCAR-5; SF-268; HCT-15; HT-29; SK-MEL-5; RXF 393; ACHN; K562; HOP-62; SK-MEL-2; KM12; SN12C; HOP-92; SNB-19; HL-60; SK-MEL-28; SF-539; HCT-116; U-251; DU-145.
Assay in all cases: NCI-60 cell line screen, 48 h

The results in this text go back to ChEMBL document CHEMBL1201862, “PubChem BioAssay data set” (2004).

The structures appear in SMILES notation.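 In this assay, cells in 96-well plates receive the compound at five concentrations for 48 hours. Endpoints are linearly interpolated between the surrounding concentrations. GI50 is the concentration that inhibits growth by half.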 Activity calls are given as the source filed them. No stated cut-off is given here; in the data, active = GI50 up to about 1.1 µM and inactive = higher.

With `CC1=CC2=C(C)C3(CC3)[C@@](C)(O)C(=O)C2=C1`, the GI50 in the assay with OVCAR-5 was 0.239 µM (active); in the assay on SF-268, 0.133 µM (active); in the assay on HCT-15, 0.193 µM; in the assay on HT-29 it was 0.227 µM (active); in the assay on SK-MEL-5 it was 0.122 µM (active); with RXF 393, 0.149 µM (active). For the same molecule, the GI50 in the assay on ACHN is 0.176 µM (active); with K562, > 1 µM (active); with HOP-62 it was 0.146 µM (active); with SK-MEL-2 it was 0.191 µM (active); in the assay on KM12, 0.355 µM (active); in the assay on SN12C, 0.231 µM (active). Besides, the GI50 in the assay on HOP-92 is 0.307 µM (active); in the assay with SNB-19, 0.243 µM (active); in the assay with HL-60, 0.135 µM (active); with SK-MEL-28, 0.194 µM (active); in the assay on SF-539 it was 0.219 µM (active); in the assay with HCT-116, 0.171 µM (active). For the same molecule, the GI50 in the assay with U-251 is 0.209 µM (active).

As to `CC1=C2C=CC(=O)C[C@@]2(C)CCC1`, the GI50 in the assay with OVCAR-5 was > 100 µM (inactive); in the assay with SF-268, > 100 µM (inactive); in the assay on HCT-15, over 100 µM; in the assay with HT-29, > 100 µM (inactive); in the assay with SK-MEL-5, > 100 µM (inactive); in the assay on RXF 393, > 100 µM (inactive). Further, the GI50 in the assay on ACHN, in the assay on K562, with HOP-62, with SK-MEL-2, in the assay on KM12 and in the assay on SN12C was > 100 µM (inactive) throughout. Besides, the GI50 in the assay with HOP-92, in the assay on SNB-19, in the assay with HL-60, with SK-MEL-28, in the assay with SF-539 and in the assay on HCT-116 was > 100 µM (inactive) throughout. Further, the GI50 in the assay on U-251 is > 100 µM (inactive).

As to `COC(O)C(=O)c1c2c(cc3c1CCC3)CCCC2` (configuration not stated), the GI50 was 18.1 µM (inactive) in the assay with OVCAR-5; 15.2 µM (inactive) in the assay with SF-268; 4.25 µM in the assay with HCT-15; 2.69 µM (inactive) with HT-29; 4.47 µM (inactive) with SK-MEL-5; 8.38 µM (inactive) in the assay on ACHN. Further, the GI50 with K562 was 3.07 µM (inactive); in the assay with HOP-62 it was 17.1 µM (inactive); in the assay with SK-MEL-2 it was 11.4 µM (inactive); in the assay on KM12, 8.59 µM (inactive); in the assay with DU-145, 14.1 µM (inactive); with SN12C it was 4.66 µM (inactive). Also, the GI50 in the assay with SNB-19 was 17.2 µM (inactive); in the assay on HL-60 it was 1.56 µM (inactive); in the assay with SK-MEL-28, 9.48 µM (inactive); in the assay on SF-539, 4.32 µM (inactive); with HCT-116, 2.02 µM (inactive); in the assay on U-251, 14 µM (inactive).

Consider `c1cc2c(s1)-c1sccc1C21OCCO1`, for which the GI50 was > 100 µM (inactive) in the assay on OVCAR-5; 18.7 µM (inactive) in the assay on SF-268; 76.2 µM in the assay on HCT-15; 97.7 µM (inactive) in the assay with HT-29; 53.5 µM (inactive) in the assay with SK-MEL-5; > 100 µM (inactive) in the assay with ACHN. The GI50 in the assay with K562 is > 100 µM (inactive); in the assay with HOP-62, > 100 µM (inactive); in the assay with SK-MEL-2, 60 µM (inactive); in the assay on KM12, > 100 µM (inactive); in the assay with DU-145, > 100 µM (inactive); with SN12C, > 100 µM (inactive). Besides, the GI50 is > 100 µM (inactive) in the assay on SNB-19; > 100 µM (inactive) in the assay on HL-60; > 100 µM (inactive) in the assay on SK-MEL-28; > 100 µM (inactive) in the assay with SF-539; 58.9 µM (inactive) in the assay with HCT-116; > 100 µM (inactive) in the assay with U-251.

For the molecule `Cc1nc2c(s/c(=N\N)n2-c2ccccc2)c(=O)[nH]1`, the GI50 in the assay on OVCAR-5 was > 100 µM (inactive); in the assay on SF-268, > 100 µM (inactive); with HCT-15, over 100 µM; with HT-29, > 100 µM (inactive); in the assay with SK-MEL-5, > 100 µM (inactive); in the assay on RXF 393 it was > 100 µM (inactive). For the same molecule, the GI50 with ACHN, in the assay with K562, with HOP-62, in the assay on SK-MEL-2, with KM12 and in the assay with SN12C was > 100 µM (inactive) each time. In addition, the GI50 in the assay on HOP-92, in the assay with SNB-19, in the assay on HL-60, in the assay on SK-MEL-28, with SF-539 and in the assay with HCT-116 was > 100 µM (inactive) each time. In addition, the GI50 with U-251 is > 100 µM (inactive).

Take `CCCN1CN(C(C(=O)N[C@@H]2C(=O)N3C(C(=O)O)=C(C)CSC23)c2ccccc2)CSC1=S` (some centres not stated): the GI50 is > 100 µM (inactive) in the assay on OVCAR-5; > 100 µM (inactive) in the assay on SF-268; 42 µM with HCT-15; > 100 µM (inactive) in the assay with HT-29; > 100 µM (inactive) with SK-MEL-5; 25.9 µM (inactive) in the assay with RXF 393. Moreover, the GI50 in the assay on ACHN was > 100 µM (inactive); in the assay on K562, 47.6 µM (inactive); in the assay with HOP-62, > 100 µM (inactive); in the assay with SK-MEL-2 it was > 100 µM (inactive); with KM12 it was > 100 µM (inactive); with SN12C, > 100 µM (inactive). For the same molecule, the GI50 is > 100 µM (inactive) in the assay on HOP-92; > 100 µM (inactive) in the assay with SNB-19; 86.9 µM (inactive) with HL-60; > 100 µM (inactive) in the assay on SK-MEL-28; > 100 µM (inactive) in the assay on SF-539; > 100 µM (inactive) in the assay on HCT-116. Moreover, the GI50 in the assay with U-251 is > 100 µM (inactive).

As to `O=C(NO)C(=O)Nc1ccc(Cl)cc1[N+](=O)[O-]`, the GI50 in the assay with OVCAR-5 was > 100 µM (inactive); in the assay with SF-268, > 100 µM (inactive); in the assay on HCT-15, over 100 µM; in the assay on HT-29 it was > 100 µM (inactive); in the assay with SK-MEL-5, > 100 µM (inactive); in the assay with RXF 393, > 100 µM (inactive). Also, the GI50 in the assay with ACHN, in the assay with K562, in the assay with HOP-62, with SK-MEL-2, in the assay with KM12 and in the assay with SN12C was > 100 µM (inactive) in each case. Also, the GI50 with HOP-92 was 83.9 µM (inactive); with SNB-19, > 100 µM (inactive); in the assay with HL-60, > 100 µM (inactive); with SK-MEL-28, > 100 µM (inactive); in the assay on SF-539, > 100 µM (inactive); in the assay on HCT-116 it was > 100 µM (inactive). For the same molecule, the GI50 in the assay with U-251 was > 100 µM (inactive).

Regarding `O=[N+]([O-])c1ccc(-c2cn(-c3ccc(Cl)cc3)cn2)cc1`, the GI50 in the assay with OVCAR-5 is > 100 µM (inactive); in the assay with SF-268, 14.2 µM (inactive); in the assay on HCT-15, over 100 µM; in the assay with HT-29, > 100 µM (inactive); with SK-MEL-5, 34.2 µM (inactive); with ACHN, 31.6 µM (inactive). Further, the GI50 with K562 was > 100 µM (inactive); with HOP-62, 18.2 µM (inactive); in the assay on SK-MEL-2, > 100 µM (inactive); in the assay with KM12 it was > 100 µM (inactive); with DU-145, > 100 µM (inactive); with SN12C it was 41.3 µM (inactive). For the same molecule, the GI50 in the assay with SNB-19 was 67 µM (inactive); with HL-60 it was > 100 µM (inactive); in the assay with SK-MEL-28, > 100 µM (inactive); in the assay on SF-539 it was 3.8 µM (inactive); with HCT-116 it was 27.4 µM (inactive); in the assay with U-251, 31.8 µM (inactive).

For `CCOc1ccc(NC(=O)C(=O)CC(=O)c2c[n+]([O-])c3cc(C)c(C)cc3[n+]2[O-])cc1`, the GI50 in the assay with OVCAR-5 was > 100 µM (inactive); with SF-268, > 100 µM (inactive); in the assay with HCT-15 it was over 100 µM; in the assay on HT-29, > 100 µM (inactive); in the assay with SK-MEL-5, > 100 µM (inactive); with RXF 393, > 100 µM (inactive). The GI50 in the assay with ACHN, in the assay on K562, in the assay on HOP-62, in the assay on SK-MEL-2, in the assay with KM12 and in the assay with SN12C was > 100 µM (inactive) throughout. Moreover, the GI50 with HOP-92, in the assay with SNB-19, with HL-60, with SK-MEL-28, in the assay with SF-539 and in the assay on HCT-116 was > 100 µM (inactive) in each case. For the same molecule, in the assay on U-251, the GI50 is > 100 µM (inactive).

`Cc1cc2oc(-c3ccccc3)c(C)c(=O)c2c2c1OC(C)(C)S2`: the GI50 in the assay with OVCAR-5 was > 100 µM (inactive); in the assay with SF-268 it was > 100 µM (inactive); in the assay on HCT-15 it was over 100 µM; in the assay on HT-29 it was 34.2 µM (inactive); in the assay with SK-MEL-5, 68.7 µM (inactive); in the assay with RXF 393, 70.3 µM (inactive). Moreover, the GI50 with ACHN was > 100 µM (inactive); in the assay with K562, 30.9 µM (inactive); in the assay on HOP-62, > 100 µM (inactive); with SK-MEL-2 it was > 100 µM (inactive); with KM12, 43.7 µM (inactive); with SN12C, > 100 µM (inactive). In addition, the GI50 with HOP-92 was 27.2 µM (inactive); with SNB-19, > 100 µM (inactive); with HL-60 it was 8.13 µM (inactive); with SK-MEL-28, 60.7 µM (inactive); in the assay on SF-539, > 100 µM (inactive); in the assay with HCT-116 it was 71 µM (inactive). Further, the GI50 in the assay with U-251 is > 100 µM (inactive).
